Assay results reported in ChEMBL document CHEMBL3286201, “Antileishmanial activity of a series of N²,N⁴-disubstituted quinazoline-2,4-diamines” (J Med Chem, 2014).

Key:
[1] = Cmax in Swiss Webster mouse plasma at 100 umol/kg, po; type: ADME, cell-free; parameters: dose 100 umol/kg, route oral
[2] = test system: Liver; test: Cmax in Swiss Webster mouse liver at 100 umol/kg, ip; type: ADME, tissue-based; parameters: dose 100 umol/kg, route intraperitoneal; settings: in vivo
[3] = Aqueous solubility of the compound at pH 7.4; type: physicochemical; settings: buffer
[4] = Distribution coefficient, log D of the compound at pH 3; type: physicochemical; settings: octanol/water
[5] = test system: Spleen; test: AUC (last) in Swiss Webster mouse spleen at 100 umol/kg, po; type: ADME, tissue-based; parameters: dose 100 umol/kg, time 0 - last, route oral; settings: in vivo
[6] = Cmax in Swiss Webster mouse plasma at 100 umol/kg, ip; type: ADME, cell-free; parameters: dose 100 umol/kg, route intraperitoneal
[7] = test system: Leishmania amazonensis; test: Antileishmanial activity against intracellular amastigote stage of Leishmania amazonensis LV78 infected in mouse J774A1 cells by colorimetric assay; type: functional, organism-based; settings: LV78, J774.A1
[8] = test system: Leishmania donovani; test: Antileishmanial activity against antimony-resistant clinical isolate Leishmania donovani BPK164/1 infected in mouse J774A1 cells by colorimetric assay; type: functional, organism-based; settings: BPK164/1, J774.A1
[9] = test system: Liver; test: Half life in mouse liver microsomes at 1 uM after 60 mins by HPLC-MS/MS analysis; type: ADME; settings: 1 h
[10] = AUC (last) in Swiss Webster mouse plasma at 100 umol/kg, ip; type: ADME, cell-free; parameters: dose 100 umol/kg, route intraperitoneal, time 0 - last
[11] = Aqueous solubility of the compound at pH 2; type: physicochemical; settings: buffer
[12] = test system: Liver; test: AUC (last) in Swiss Webster mouse liver at 100 umol/kg, ip; type: ADME, tissue-based; parameters: dose 100 umol/kg, time 0 - last, route intraperitoneal; settings: in vivo
[13] = test system: Liver; test: AUC (last) in Swiss Webster mouse liver at 100 umol/kg, po; type: ADME, tissue-based; parameters: dose 100 umol/kg, time 0 - last, route oral; settings: in vivo
[14] = Cytotoxicity against mouse J774A1 cells after 72 hrs by MTT assay; type: cell-based; settings: J774.A1, 72 h
[15] = test system: Leishmania donovani; test: Antileishmanial activity against clinical isolate Leishmania donovani BPK206/0 infected in mouse J774A1 cells by colorimetric assay; settings: BPK206/0, J774.A1
[16] = test system: Leishmania donovani; test: Antileishmanial activity against intracellular amastigote stage of Leishmania donovani MHOM/ET/67/L82 infected in mouse J774A1 cells by colorimetric assay; type: functional, organism-based; settings: MHOM/ET/67/L82, J774.A1
[17] = Elimination half life in Swiss Webster mouse plasma at 100 umol/kg, po; type: ADME, cell-free
[18] = pampa, pH 7.4
Description: (§1) Passive transcellular permeability of the compound at pH 7.4 by PAMPA

[19] = pampa, pH 4
Description: (§2) Passive transcellular permeability of the compound at pH 4 by PAMPA

[20] = test system: Liver; test: Cmax in Swiss Webster mouse liver at 100 umol/kg, po; type: ADME, tissue-based; parameters: dose 100 umol/kg, route oral; settings: in vivo
[21] = test system: Spleen; test: AUC (last) in Swiss Webster mouse spleen at 100 umol/kg, ip; type: ADME, tissue-based; parameters: dose 100 umol/kg, route intraperitoneal, time 0 - last; settings: in vivo
[22] = Distribution coefficient, log D of the compound at pH 7.4; type: physicochemical; settings: octanol/water
[23] = Elimination half life in Swiss Webster mouse plasma at 100 umol/kg, ip; type: ADME, cell-free; settings: read-out: beta t1/2 (converted)
[24] = test system: Mus musculus; test: Toxicity in BALB/c mouse assessed as hypoactivity at 30 mg/kg, ip for 5 consecutive doses; type: organism-based; parameters: dose 30 mg/kg, route intraperitoneal; settings: in vivo
[25] = test system: Spleen; test: Cmax in Swiss Webster mouse spleen at 100 umol/kg, po; type: ADME, tissue-based; parameters: dose 100 umol/kg, route oral; settings: in vivo
[26] = test system: Spleen; test: Cmax in Swiss Webster mouse spleen at 100 umol/kg, ip; type: ADME, tissue-based; parameters: dose 100 umol/kg, route intraperitoneal; settings: in vivo
[27] = AUC (last) in Swiss Webster mouse plasma at 100 umol/kg, po; type: ADME, cell-free; parameters: dose 100 umol/kg, route oral, time 0 - last
[28] = test system: Mus musculus; test: Toxicity in BALB/c mouse assessed as slowed breathing at 30 mg/kg, ip for 5 consecutive doses; type: organism-based; parameters: dose 30 mg/kg, route intraperitoneal; settings: in vivo
[29] = Selectivity index, ratio of EC50 for mouse J774A1 cells to EC50 for intracellular amastigote stage of Leishmania donovani MHOM/ET/67/L82; type: toxicity, cell-based, J774.A1; settings: read-out: Ratio EC50
[30] = Toxicity in BALB/c mouse assessed as tolerated dose treated ip for 5 consecutive doses; type: organism-based; settings: in vivo
[31] = physchem; settings: pampa, pH 7.4
Description: as §1

[32] = physchem; settings: pampa, pH 4
Description: as §2

Row | SMILES | Cmax [1] | Cmax [2] | solubility [3] | logD [4] | AUClast [5] | Cmax [6] | EC50 [7] | EC50 [8] | t1/2 [9] | AUC(0-t) [10] | solubility [11] | AUClast [12] | AUClast [13] | EC50 [14] | EC50 [15] | EC50 [16] | permeability [18] | permeability [19] | Cmax [20] | logD [22] | also measured
1 | Cc1ccc2c(NCc3ccco3)nc(NC(C)C)nc2c1 | 0.25 µM | 48 µM | ≤ 20 µM | 1.58 | 7.4 µM·h | 2.67 µM | 4100 nM | 3800 nM | 0.157 h | 4.6 µM·h | ≥ 30 µM | 42 µM·h | 29 µM·h | > 33000 nM | 4200 nM | 830 nM | 798 ×10⁻⁶ cm/s | 67.2 ×10⁻⁶ cm/s | 5.2 µM | 3.61 | half-life [17]: 20 h; AUClast [21]: 71 µM·h; half-life [23]: 5.4 h; Activity [24]: Toxic; Cmax [25]: 0.9 µM; Cmax [26]: 45.8 µM; AUC(0-t) [27]: 2.5 µM·h
2 | CCCCNc1nc(NCc2ccccc2)nc2ccccc12 | 0.44 µM | 148 µM | ≤ 10 µM | 2.86 | 68 µM·h | 5.21 µM | 1400 nM | 1400 nM | 0.45 h | 11 µM·h | ≥ 30 µM | 500 µM·h | 110 µM·h | 4900 nM | 2000 nM | 340 nM | 1020 ×10⁻⁶ cm/s | 341 ×10⁻⁶ cm/s | 15.8 µM | 3.84 | AUClast [21]: 620 µM·h; half-life [23]: 20 h; Cmax [25]: 7 µM; Activity [28]: Toxic; Cmax [26]: 163 µM; AUC(0-t) [27]: 7.8 µM·h
3 | COc1cccc2nc(NC(C)C)nc(NCc3ccco3)c12 |  |  | ≤ 20 µM | 2.53 |  |  | 2700 nM |  |  |  | ≥ 30 µM |  |  | 18000 nM |  | 970 nM | 624 ×10⁻⁶ cm/s | 87 ×10⁻⁶ cm/s |  | 3.35 | selectivity ratio [29]: 19
4 | CNc1nc(NCc2ccccc2)nc2ccccc12 |  |  | ≤ 10 µM | 2 |  |  | 900 nM | 2000 nM |  |  | ≥ 30 µM |  |  | 15000 nM | 2800 nM | 150 nM | 1720 ×10⁻⁶ cm/s | 57.1 ×10⁻⁶ cm/s |  | 2.96 | MTD at 5 consecutive doses [30]: 30 mg/kg; selectivity ratio [29]: 100
5 | NC(=O)N1c2ccccc2C=Cc2ccccc21 [CARBAMAZEPINE] |  |  |  |  |  |  |  |  |  |  |  |  |  |  |  |  |  |  |  |  | Papp [31]: 130 ×10⁻⁶ cm/s; Papp [32]: 108 ×10⁻⁶ cm/s
6 | CNC(=C[N+](=O)[O-])NCCSCc1ccc(CN(C)C)o1.Cl [RANITIDINE HYDROCHLORIDE] |  |  |  |  |  |  |  |  |  |  |  |  |  |  |  |  |  |  |  |  | Papp [31]: 5.2 ×10⁻⁶ cm/s; Papp [32]: 2.2 ×10⁻⁶ cm/s
